Data reported in patent US20120142645A1, “NEUROACTIVE STEROID COMPOSITIONS AND METHODS OF USE FOR LOWERING CHOLESTEROL” (priority 2009, published 2012).
Where “and” joins values, the source holds several entries; their conditions need not be identical. Identical values can stand only once.

Tests used:
[1] = test system: patients with schizophrenia or schizoaffective disorder; assay: Psychiatric rating scales (PANSS, CGI, Calgary, SAS, BAS, AIMS, Quality of Life); same trial; assay type: in vivo, human; parameters: CGI-S score / Calgary Depression Scale, difference PG vs placebo / Heinrich Carpenter subscore Interpersonal and social work, difference PG vs placebo / Heinrich Carpenter subscore Occupational role function, difference PG vs placebo / Heinrich Carpenter subscore Other residual symptoms, difference PG vs placebo: scale not given here; settings: for Heinrich Carpenter Quality of Life Scale, difference PG vs placebo: not significant (p=0.32); for PANSS General subscore / PANSS Negative symptoms subscore / PANSS Positive symptoms subscore / PANSS total score: mean; for CGI-I score: Week 8 (final), 2=much improved, 3=minimally improved, n = 9
Procedure: Study Design and Subjects. Disclosed herein is a placebo-controlled, double-blind, parallel group, randomized trial of adjunctive pregnenolone for the treatment of cognitive and negative symptoms in patients with schizophrenia or schizoaffective disorder. […] Patients received a total of 6 study visits, which took place every two weeks. […] The trial was conducted at a single site, the Durham Veterans Affairs Medical Center in Durham, N.C. The protocol was approved by the local institutional review board and conducted under FDA Investigational New Drug (IND) #71,768. The ClinicalTrials.gov number for this study is NCT00560937.
During the screening visit (Visit 1), patients received a physical exam, vital signs, and electrocardiogram (EKG), as well as baseline laboratory measures consisting of serum electrolytes, glucose, creatinine, blood urea nitrogen (chemistry 7 panel), liver function tests, complete blood count (CBC), urinalysis, urine toxicology test, thyroid stimulating hormone (TSH), and prolactin, and serum pregnancy test if female. These tests were also repeated at the completion of the study (Visit 6). In addition, patients received an interim EKG 4 weeks post-randomization, as well as a serum pregnancy test if female (Visit 4). Patients also received a chemistry 7 panel, CBC, and liver function tests at Visits 2, 3, 4, and 5 (i.e., at all study visits). Psychiatric symptoms were assessed at baseline using the Scale for the Assessment of Negative Symptoms (Andreasen, 1983), the Positive and Negative Symptom Scale (PANSS; Kay et al., 1987), the Calgary Depression Rating Scale (CDRS; Addington et al., 1990), the Clinical Global Impressions Improvement (CGI-I) and Severity (CGI-S) scales, the Barnes Akathisia Scale (BAS; Barnes, 1989), the Simpson Angus Scale for Extrapyramidal Symptoms (SAS; Simpson & Angus, 1970), the Quality of Life Scale (QOL; Heinrichs et al., 1984), and the Hillside Side Effects Scale. One research nurse with five years of experience in the conduction of schizophrenia clinical trials completed both psychiatric and cognitive assessments throughout the study, and was trained to one point of divergence on each PANSS item.

[2] = test system: subjects with mild traumatic brain injury (TBI); assay: Total cholesterol in mild TBI subjects, pregnenolone 8 weeks (100, 300, then 500 mg/day oral) versus placebo; assay type: in vivo, human; settings: baseline to study completion (8 weeks), t-test of change scores p=0.035, FIG. 3
Source text: Ten (10) additional subjects with mild TBI were given a placebo.

humans = settings: cited from earlier work
[3] = Difference in changes from Week 0-8
[4] = Difference in changes from Week 0-8, points
[5] = Difference in changes from Week 0-8, points, listed as pregnenolone

CC(=O)[C@H]1CC[C@H]2[C@@H]3CC=C4C[C@@H](O)CC[C@]4(C)[C@H]3CC[C@]12C [PG, pregnenolone]
CGI-S, change ([1]; Changes from Week 0-8): −0.1 | Calgary Depression Scale, change ([1]; Changes from Week 0-8, n = 7): −1.6 | AIMS, change ([1]; Changes from Week 0-8, n = 8): −1.0 | Barnes Akathisia Scale, change ([1]; Changes from Week 0-8, n = 8): −0.4 | Heinrich Carpenter Quality of Life Scale, change ([1]; Changes from Week 0-8, n = 8): 7.9 | Heinrich Carpenter subscore Interpersonal and social work, change ([1]; Changes from Week 0-8, n = 8): 5.4 | Heinrich Carpenter subscore Occupational role function, change ([1]; Changes from Week 0-8, n = 8): 0.9 | Heinrich Carpenter subscore Other residual symptoms, change ([1]; Changes from Week 0-8, n = 8): 1.6 | PANSS General, change ([1]; Changes from Week 0-8, n = 8): −4.5 | PANSS Negative symptoms, change ([1]; Changes from Week 0-8, n = 8): −2.8 | PANSS Positive symptoms, change ([1]; Changes from Week 0-8, n = 8): −2.6 | PANSS total, change ([1]; Changes from Week 0-8, n = 8): −9.9 | Simpson-Angus Scale, change ([1]; Changes from Week 0-8, n = 8): −0.1 | AIMS, difference PG vs placebo [1, 3]: −0.6 ± 0.7 | Calgary Depression Scale, difference PG vs placebo [1, 3]: 0.4 ± 1.6 | Heinrich Carpenter subscore Interpersonal and social work, difference PG vs placebo [1, 3]: 3.6 ± 3.2 | Heinrich Carpenter subscore Occupational role function, difference PG vs placebo [1, 3]: 0.8 ± 0.6 | Heinrich Carpenter subscore Other residual symptoms, difference PG vs placebo [1, 3]: 0.9 ± 2.2 | PANSS General, difference PG vs placebo [1, 3]: −1.3 ± 2.1 | PANSS Positive symptoms, difference PG vs placebo [1, 3]: −1.6 ± 0.8 | Simpson-Angus Scale, difference PG vs placebo [1, 3]: −0.2 ± 0.4 | PANSS Negative symptoms, difference PG vs placebo [1, 4]: −1.5 ± 1.4 | PANSS Negative symptoms, difference PG vs placebo [1, 5]: 1.53 | PANSS total, difference PG vs placebo ([1]; Difference in changes from Week 0-8, points, not significant (p=0.24)): −4.4 ± 3.6 | Heinrich Carpenter Quality of Life Scale, difference PG vs placebo [1, 4]: 5.3 ± 5.1 | Heinrich Carpenter Quality of Life Scale, difference PG vs placebo [1, 5]: 5.27±5.07 and 5.27 | AIMS score ([1]; Week 0 (baseline)): 1.6 | Barnes Akathisia Scale score ([1]; Week 0 (baseline)): 0.4 | CGI-S score ([1]; Week 0 (baseline)): 4.0 | Calgary Depression Scale score ([1]; Week 0 (baseline)): 2.4 | Heinrich Carpenter Quality of Life Scale score ([1]; Week 0 (baseline)): 47.5 | Heinrich Carpenter subscore Interpersonal and social work ([1]; Week 0 (baseline)): 17.9 | Heinrich Carpenter subscore Occupational role function ([1]; Week 0 (baseline)): 1.9 | Heinrich Carpenter subscore Other residual symptoms ([1]; Week 0 (baseline)): 27.8 | Simpson-Angus Scale score ([1]; Week 0 (baseline)): 1.0 | CGI-S score ([1]; Week 0 (baseline), listed as pregnenolone): 4.00±0.50 | PANSS General subscore ([1]; Week 0 (baseline)): 35.5 | PANSS Negative symptoms subscore ([1]; Week 0 (baseline)): 23.4 | PANSS Positive symptoms subscore ([1]; Week 0 (baseline)): 13.6 | PANSS total score ([1]; Week 0 (baseline)): 72.5 | AIMS score ([1]; Week 4): 0.9 | Barnes Akathisia Scale score ([1]; Week 4): 0.4 | Simpson-Angus Scale score ([1]; Week 4): 1.3 | PANSS General subscore ([1]; Week 4): 34.3 | PANSS Negative symptoms subscore ([1]; Week 4): 23.2 | PANSS Positive symptoms subscore ([1]; Week 4): 12.8 | PANSS total score ([1]; Week 4): 67.9 | AIMS score ([1]; Week 8): 0.6 | Barnes Akathisia Scale score ([1]; Week 8): 0.0 | Calgary Depression Scale score ([1]; Week 8): 0.9 | Heinrich Carpenter Quality of Life Scale score ([1]; Week 8): 55.4 | Heinrich Carpenter subscore Interpersonal and social work ([1]; Week 8): 23.3 | Heinrich Carpenter subscore Occupational role function ([1]; Week 8): 2.8 | Heinrich Carpenter subscore Other residual symptoms ([1]; Week 8): 29.4 | Simpson-Angus Scale score ([1]; Week 8): 0.9 | CGI-I score [1]: 2.11 | CGI-I score ([1]; listed as pregnenolone): 2.11±0.33 and 2.11 | CGI-S score ([1]; Week 8 (post-treatment)): 3.9 | CGI-S score ([1]; Week 8 (post-treatment), listed as pregnenolone): 3.89±0.33 | PANSS General subscore ([1]; Week 8): 31.2 | PANSS Negative symptoms subscore ([1]; Week 8): 20.6 | PANSS Positive symptoms subscore ([1]; Week 8): 11.9 | PANSS total score ([1]; Week 8): 63.6 | Total cholesterol (percent change) compared to placebo [2]: statistically significant reduction | Total cholesterol (percent change) compared to placebo ([2]; listed as pregnenolone): reduced | Tolerability in healthy volunteers (humans; 15-30 mg/day, no significant side effects compared to placebo, Meieran et al., 2004): generally well-tolerated | Safety and tolerability in humans (humans; 25-500 mg/day, studies of the 1940s and 1950s): safe and well-tolerated
